The test system of one assay is influenza virus. Briefly: Virus budding assay (influenza assay). Format: cell-based.
In a further assay the test system is PR8 virus. Briefly: microbe, parasite or virus in culture. It is filed as cell-based. The conditions noted are these: unidentified influenza virus, PR8, MDCK; for inhibition at 3.125 µM: read-out: inhibition of virus replication / infection.
A short description of assay [1]: Disrafter-Liposome Raftophile Assay (D-LRA). The note with it: 100 μM.
The test system of a further assay is Wild type SV40 viruses. It is filed as cell-based, Simian Virus 40. The note with it: 15CM, HeLa cells, compared to solvent control.
Assay [2] relates to vesicular stomatitis virus (VSV). It is filed as cell-based. The note with it: HeLa cells.
For a further assay, the system named is HIV-1 strain NL4-3. Put plainly: microbe, parasite or virus in culture. The note with it: Human immunodeficiency virus 1, NL43, HeLa TZM cells, compared to solvent, read-out: inhibition of HIV infection. Format: cell-based.
Another assay has as its system RBL-2H3 cells. Put plainly: Degranulation assay (β-hexosaminidase release). Format: cell-based, Rat.
Where [3] appears, read: Rattus norvegicus, RBL-2H3, read-out: inhibition of release of β-hexosaminidase.

For `CCCCCCCCCCCCCCCCCCOc1cc2[nH]c3cc(OC)ccc3c2cc1C` [Compound 25d], the “inhibition in influenza virus budding assay” value in the assay on influenza virus is reported as “inhibitory”. Besides, the inhibition at 3.125 µM in the assay on PR8 virus was found to be 18.4%.
Consider `CCCCCCCc1c(C)c(OC)cc2c1[nH]c1ccccc12` [Compound 24d], for which the “inhibition in influenza virus budding assay” value with influenza virus is on record as “inhibitory”. Besides, the inhibition at 100 µM with PR8 virus (read-out: inhibition of virus infection) is 50.9%. For the same compound, the “disrafting activity (% disrafting)” value in assay [1] (perylene as marker) was -98.5%.
Take `CC1=C(Cc2ccc3[nH]c4c(c3c2)C(=O)C(=O)C(C)=C4CC(C)O)CCC(C)(C)C1` (centres unmarked) [Compound 22a]: in the assay on influenza virus, the “inhibition in influenza virus budding assay” value is reported as “inhibitory”. Besides, the inhibition at 3.125 µM in the assay with PR8 virus was determined as 24.2%. In addition, the “inhibition of SV40 infection” value in the assay on Wild type SV40 viruses came out at 19%. Besides, in assay [2], the “inhibitory effect on viral infection in VSV counterscreen” value is listed as “no inhibitory effect on viral infection at all”. Besides, in the assay on HIV-1 strain NL4-3, the inhibition at 10 µM came to 15%.
For `CCCCCCCC1(O)C(C)=C(OC)C(=O)c2c1[nH]c1ccccc21` (centres unmarked) [Compound 22c], the “inhibition in influenza virus budding assay” value with influenza virus is listed as “inhibitory”. Further, the inhibition at 3.125 µM in the assay with PR8 virus was 60.2%. The inhibition at 50 µM in the assay with RBL-2H3 cells (setting [3]) was 12%. In addition, the inhibition at 10 µM in the assay on HIV-1 strain NL4-3 was found to be 44%.
For the compound `CCCCCCCC1=C(C)C(=O)C(=O)c2c1[nH]c1ccccc21` [Compound 21b], the “inhibition in influenza virus budding assay” value in the assay on influenza virus is “inhibitory”. The inhibition at 25 µM with PR8 virus (read-out: inhibition of virus replication) was found to be 18.3%.
Regarding `CC(C)=CCc1ccc2[nH]c3c(c2c1)C(=O)C(=O)C(C)=C3C[C@@H](C)O` [Compound 21a], the inhibition at 100 µM in the assay with RBL-2H3 cells (setting [3]) was 46%. The “disrafting activity (% disrafting)” value in assay [1] (perylene as marker) stood at 47.2%.
On to `CCCCCCCc1c(C)c(O)cc2c1[nH]c1ccccc12` [Compound 23d], for which the inhibition at 100 µM with RBL-2H3 cells (setting [3]) was found to be 15%. Further, the inhibition at 10 µM with HIV-1 strain NL4-3 came out at 20%. The “disrafting activity (% disrafting)” value in assay [1] (GS-96 as marker) was -97.3%.
With `Cc1c(C)c2c(c(C)c1O)CC[C@@](C)(CCC[C@H](C)CCC[C@H](C)CCCC(C)C)O2` [Alpha-(+)-tocopherol], the “activity in mast cell degranulation assay” value in the assay with RBL-2H3 cells is recorded as “moderately active”.
Consider `CCCCCCCc1c(C)c(OC)c(OC)c2c1[nH]c1ccccc12` [Compound 22d], for which the inhibition at 10 µM with HIV-1 strain NL4-3 was found to be 21%.

The values above are taken from US20100063126A1, “Carbazole-Derived Pharmaceutical Compositions” (JadoLabs GmbH, priority 2004, published 2010).
